The values that follow are results of earlier work, collected in US20060280691A1 (University of Alberta, priority 2005, published 2006).

For data set [1], the system named is Neisseria gonorrhoeae.
The test system of data set [2] is Pseudomonas aeruginosa.
Data set [3] concerns Bacillus anthracis.
For data set [4], the system named is Streptococcus pyogenes.

Each structure is given as a SMILES string. In brackets after ≈: the same amount, converted by molar mass.

Take `O=C(O)c1cn(C2CC2)c2cc(N3CCNCC3)c(F)cc2c1=O` [Ciprofloxacin, ciprofloxacin]: the figures for the MIC90 in data set [1], in data set [2] and in data set [4] were 0.004 mg/L (≈ 0.0121 µM), 4 mg/L (≈ 12.1 µM) and 1 mg/L (≈ 3.02 µM), respectively. Also, the MIC (commonly the least concentration at which growth counts as inhibited) in data set [3] was 1.6 mg/L (≈ 4.83 µM).
